Measurements published in ChEMBL document CHEMBL4190397, “Design and Synthesis of Novel and Selective Glycine Transporter-1 (GlyT1) Inhibitors with Memory Enhancing Properties” (J Med Chem, 2018).

Assays:
[1] = molecular target: T1, Sodium- and chloride-dependent glycine transporter 1 (Homo sapiens, UniProt P48067); assay: Inhibition of recombinant human GlyT1c expressed in HEK293 cells assessed as reduction in [14C]glycine uptake after 2 hrs by microbeta scintillation counting method; assay type: cell-based
T1 sequence (P48067 whole entry): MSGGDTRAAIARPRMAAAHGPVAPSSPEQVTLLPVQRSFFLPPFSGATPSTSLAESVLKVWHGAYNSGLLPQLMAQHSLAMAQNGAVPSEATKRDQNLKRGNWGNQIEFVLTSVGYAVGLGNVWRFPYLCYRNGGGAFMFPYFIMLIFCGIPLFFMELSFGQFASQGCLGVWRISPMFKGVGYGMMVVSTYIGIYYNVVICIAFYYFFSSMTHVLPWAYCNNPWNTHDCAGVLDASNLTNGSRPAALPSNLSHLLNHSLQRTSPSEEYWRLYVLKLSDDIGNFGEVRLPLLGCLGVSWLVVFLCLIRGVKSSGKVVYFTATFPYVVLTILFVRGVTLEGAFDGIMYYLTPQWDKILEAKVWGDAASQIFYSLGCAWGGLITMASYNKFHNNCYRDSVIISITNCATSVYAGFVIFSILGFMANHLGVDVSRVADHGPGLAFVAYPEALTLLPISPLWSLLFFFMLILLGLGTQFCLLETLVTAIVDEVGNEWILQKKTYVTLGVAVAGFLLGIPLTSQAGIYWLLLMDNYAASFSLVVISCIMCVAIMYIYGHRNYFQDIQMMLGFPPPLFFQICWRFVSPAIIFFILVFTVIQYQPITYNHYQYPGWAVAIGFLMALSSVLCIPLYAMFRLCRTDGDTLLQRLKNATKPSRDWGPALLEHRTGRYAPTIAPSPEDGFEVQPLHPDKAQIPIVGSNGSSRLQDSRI

[2] = molecular target: T2, Sodium- and chloride-dependent glycine transporter 1 (Rattus norvegicus, UniProt P28572); assay: Inhibition of GlyT1 in primary rat cortical neurons assessed as reduction in [14C]glycine uptake after 2 hrs by microbeta scintillation counting method
T2 sequence (P28572 whole entry): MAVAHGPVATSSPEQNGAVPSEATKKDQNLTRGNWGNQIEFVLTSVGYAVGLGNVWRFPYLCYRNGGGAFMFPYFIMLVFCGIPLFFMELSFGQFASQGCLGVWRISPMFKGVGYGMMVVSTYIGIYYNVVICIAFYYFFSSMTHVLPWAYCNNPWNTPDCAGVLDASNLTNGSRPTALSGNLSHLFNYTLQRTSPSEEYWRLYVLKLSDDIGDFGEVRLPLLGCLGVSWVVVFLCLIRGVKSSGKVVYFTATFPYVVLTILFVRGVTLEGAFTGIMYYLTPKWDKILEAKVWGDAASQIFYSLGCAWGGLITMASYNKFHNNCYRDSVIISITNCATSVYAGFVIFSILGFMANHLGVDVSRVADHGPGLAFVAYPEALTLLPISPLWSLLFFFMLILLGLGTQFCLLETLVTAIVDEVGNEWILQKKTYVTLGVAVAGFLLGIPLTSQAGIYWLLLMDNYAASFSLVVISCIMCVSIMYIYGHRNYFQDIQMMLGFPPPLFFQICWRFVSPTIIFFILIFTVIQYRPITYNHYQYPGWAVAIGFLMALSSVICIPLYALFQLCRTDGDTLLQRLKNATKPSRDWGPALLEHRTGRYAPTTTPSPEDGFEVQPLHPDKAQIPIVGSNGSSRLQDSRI

[3] = molecular target: Voltage-gated inwardly rectifying potassium channel KCNH2 (Homo sapiens, UniProt Q12809); assay: Inhibition of human ERG expressed in CHO cells at 10 nM to 10 uM at holding potential of -80 mV measured after 5 mins by QPatch automated patch clamp electrophysiology method
Sequence of Voltage-gated inwardly rectifying potassium channel KCNH2 (Q12809 whole entry): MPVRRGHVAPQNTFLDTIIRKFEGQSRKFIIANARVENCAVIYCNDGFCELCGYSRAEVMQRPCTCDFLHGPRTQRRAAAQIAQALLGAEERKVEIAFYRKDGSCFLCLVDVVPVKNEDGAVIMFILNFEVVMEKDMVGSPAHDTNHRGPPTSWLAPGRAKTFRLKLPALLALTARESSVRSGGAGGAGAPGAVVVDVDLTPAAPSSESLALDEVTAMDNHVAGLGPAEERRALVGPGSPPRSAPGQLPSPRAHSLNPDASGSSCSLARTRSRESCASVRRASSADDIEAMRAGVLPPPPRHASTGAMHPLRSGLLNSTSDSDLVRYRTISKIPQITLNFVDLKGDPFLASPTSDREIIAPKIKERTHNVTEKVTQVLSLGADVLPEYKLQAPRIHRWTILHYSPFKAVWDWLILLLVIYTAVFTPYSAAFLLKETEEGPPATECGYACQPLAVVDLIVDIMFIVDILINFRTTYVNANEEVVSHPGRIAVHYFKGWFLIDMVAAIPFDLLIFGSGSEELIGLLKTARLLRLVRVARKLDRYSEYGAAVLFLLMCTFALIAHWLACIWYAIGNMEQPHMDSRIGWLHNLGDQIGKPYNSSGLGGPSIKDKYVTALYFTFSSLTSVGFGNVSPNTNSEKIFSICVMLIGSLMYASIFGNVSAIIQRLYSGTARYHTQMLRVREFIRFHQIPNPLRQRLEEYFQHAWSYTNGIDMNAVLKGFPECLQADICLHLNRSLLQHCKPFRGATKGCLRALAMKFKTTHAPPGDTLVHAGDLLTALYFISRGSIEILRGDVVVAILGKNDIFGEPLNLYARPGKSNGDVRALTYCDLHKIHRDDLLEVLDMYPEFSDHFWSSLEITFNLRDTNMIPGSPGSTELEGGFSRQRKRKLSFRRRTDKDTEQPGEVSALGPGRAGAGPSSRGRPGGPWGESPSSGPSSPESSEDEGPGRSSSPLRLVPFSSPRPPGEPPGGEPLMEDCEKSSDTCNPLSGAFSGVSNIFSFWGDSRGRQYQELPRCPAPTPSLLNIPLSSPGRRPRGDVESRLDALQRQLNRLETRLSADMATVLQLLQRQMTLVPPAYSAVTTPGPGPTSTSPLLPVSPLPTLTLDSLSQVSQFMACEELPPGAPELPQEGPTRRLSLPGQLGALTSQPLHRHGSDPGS

[4] = Apparent permeability from apical to basolateral side in MDCK-MDR1 cells monolayer at 5 uM after 60 mins by LC-MS/MS analysis; conditions: dog
[5] = Apparent permeability from basolateral to apical side in MDCK-MDR1 cells monolayer at 5 uM after 60 mins by LC-MS/MS analysis; conditions: dog
[6] = Efflux ratio of apparent permeability from basolateral to apical over apical to basolateral side in MDCK-MDR1 cells at 5 uM after 60 mins by LC-MS/MS analysis; conditions: dog
[7] = molecular target: T3, Sodium- and chloride-dependent glycine transporter 2 (Homo sapiens, UniProt Q9Y345); assay: Inhibition of recombinant human GlyT2 expressed in HEK293 cells assessed as reduction in [14C]glycine uptake after 2 hrs by microbeta scintillation counting method; assay type: cell-based
T3 sequence (Q9Y345 whole entry): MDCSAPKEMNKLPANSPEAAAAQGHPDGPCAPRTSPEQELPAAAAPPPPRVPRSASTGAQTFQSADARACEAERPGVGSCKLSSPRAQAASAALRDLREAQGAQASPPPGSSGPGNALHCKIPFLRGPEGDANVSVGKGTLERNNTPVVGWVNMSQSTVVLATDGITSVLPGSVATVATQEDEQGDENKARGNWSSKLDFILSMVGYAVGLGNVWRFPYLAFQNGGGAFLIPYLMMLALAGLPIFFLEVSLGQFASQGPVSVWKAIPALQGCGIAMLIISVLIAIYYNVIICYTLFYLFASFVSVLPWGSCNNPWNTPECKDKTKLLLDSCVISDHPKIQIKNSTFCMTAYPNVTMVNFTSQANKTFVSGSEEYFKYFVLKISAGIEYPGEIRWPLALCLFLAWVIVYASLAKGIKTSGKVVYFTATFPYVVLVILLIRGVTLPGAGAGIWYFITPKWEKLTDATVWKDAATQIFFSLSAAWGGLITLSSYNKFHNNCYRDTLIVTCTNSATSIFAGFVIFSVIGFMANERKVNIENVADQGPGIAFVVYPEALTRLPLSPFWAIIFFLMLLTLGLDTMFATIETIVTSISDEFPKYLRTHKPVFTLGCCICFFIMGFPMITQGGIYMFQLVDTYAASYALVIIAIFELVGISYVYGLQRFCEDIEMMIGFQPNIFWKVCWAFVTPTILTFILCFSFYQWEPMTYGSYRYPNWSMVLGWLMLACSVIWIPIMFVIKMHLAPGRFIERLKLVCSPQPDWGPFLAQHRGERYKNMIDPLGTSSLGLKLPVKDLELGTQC

Cytochrome P450 2C9 = Cytochrome P450 2C9 (Homo sapiens, UniProt P11712); assay: Inhibition of CYP2C9 in human liver microsomes using diclofenac as substrate measured after 10 mins in presence of NADPH by LC-MS/MS analysis
Sequence of Cytochrome P450 2C9 (P11712 whole entry): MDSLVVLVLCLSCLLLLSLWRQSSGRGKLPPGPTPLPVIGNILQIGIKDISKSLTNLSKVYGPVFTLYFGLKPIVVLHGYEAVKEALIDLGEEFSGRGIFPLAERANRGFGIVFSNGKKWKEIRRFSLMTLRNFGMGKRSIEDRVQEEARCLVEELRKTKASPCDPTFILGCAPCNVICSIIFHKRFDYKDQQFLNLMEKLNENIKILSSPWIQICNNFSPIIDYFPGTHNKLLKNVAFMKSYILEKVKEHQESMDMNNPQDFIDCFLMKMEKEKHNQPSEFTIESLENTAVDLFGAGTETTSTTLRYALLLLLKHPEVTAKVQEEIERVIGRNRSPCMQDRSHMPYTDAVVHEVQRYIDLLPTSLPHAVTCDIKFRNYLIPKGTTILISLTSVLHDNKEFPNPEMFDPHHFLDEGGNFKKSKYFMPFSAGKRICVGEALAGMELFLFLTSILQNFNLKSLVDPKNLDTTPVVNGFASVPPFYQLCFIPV

Cytochrome P450 2C19 = Cytochrome P450 2C19 (Homo sapiens, UniProt P33261); assay: Inhibition of CYP2C19 in human liver microsomes using S-mephenytoin as substrate measured after 10 mins in presence of NADPH by LC-MS/MS analysis
Sequence of Cytochrome P450 2C19 (P33261 whole entry): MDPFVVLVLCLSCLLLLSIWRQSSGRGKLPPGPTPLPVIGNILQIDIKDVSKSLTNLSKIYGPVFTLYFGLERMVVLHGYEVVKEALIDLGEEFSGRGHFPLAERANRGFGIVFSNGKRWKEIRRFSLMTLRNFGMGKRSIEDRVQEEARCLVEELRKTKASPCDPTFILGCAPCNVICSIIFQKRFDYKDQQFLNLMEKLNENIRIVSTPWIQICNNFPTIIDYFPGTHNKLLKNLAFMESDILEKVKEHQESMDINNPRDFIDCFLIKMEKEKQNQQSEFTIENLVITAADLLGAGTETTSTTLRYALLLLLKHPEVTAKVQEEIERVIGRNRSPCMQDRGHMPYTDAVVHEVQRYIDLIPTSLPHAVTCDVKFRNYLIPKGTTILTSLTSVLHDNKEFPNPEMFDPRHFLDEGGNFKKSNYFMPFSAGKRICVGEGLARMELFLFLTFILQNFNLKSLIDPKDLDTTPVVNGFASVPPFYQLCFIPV

Cytochrome P450 2D6 = Cytochrome P450 2D6 (Homo sapiens, UniProt P10635); assay: Inhibition of CYP2D6 in human liver microsomes using dextromethorphan as substrate measured after 10 mins in presence of NADPH by LC-MS/MS analysis
Sequence of Cytochrome P450 2D6 (P10635 whole entry): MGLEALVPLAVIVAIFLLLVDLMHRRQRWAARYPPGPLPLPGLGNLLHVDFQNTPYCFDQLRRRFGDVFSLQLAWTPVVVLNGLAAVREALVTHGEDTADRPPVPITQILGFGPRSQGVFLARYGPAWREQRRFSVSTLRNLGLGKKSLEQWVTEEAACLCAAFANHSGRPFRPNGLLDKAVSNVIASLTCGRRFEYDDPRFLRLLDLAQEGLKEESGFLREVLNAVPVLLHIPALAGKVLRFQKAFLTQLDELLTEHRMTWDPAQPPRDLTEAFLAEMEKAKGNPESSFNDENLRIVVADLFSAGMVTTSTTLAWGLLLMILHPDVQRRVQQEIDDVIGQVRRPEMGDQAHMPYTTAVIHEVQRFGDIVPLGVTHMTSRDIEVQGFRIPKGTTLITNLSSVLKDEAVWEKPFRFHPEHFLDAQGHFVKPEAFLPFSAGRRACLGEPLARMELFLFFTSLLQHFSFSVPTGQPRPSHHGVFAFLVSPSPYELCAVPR

[8] = Permeability of the compound at pH 7.4 at 100 uM after 60 mins by PAMPA-BBB assay

IC50 [1]	IC50 [2]	Papp A→B at 1 h, 5 µM [4]	Papp B→A at 1 h, 5 µM [5]	efflux ratio at 1 h, 5 µM [6]	IC50 [7]	IC50 (Cytochrome P450 2C9)	IC50 (Cytochrome P450 2C19)	IC50 (Cytochrome P450 2D6)	Papp at 1 h, 100 µM [8]	Structure (SMILES)	IC50 [3]
0.038 µM	0.028 µM	24.6 ×10⁻⁶ cm/s	58.9 ×10⁻⁶ cm/s	2.4	> 10 µM	> 10 µM	> 10 µM	> 10 µM	77.9 ×10⁻⁶ cm/s	CS(=O)(=O)c1ccc(OCC2CC2)c(C(=O)N2Cc3cn(-c4ccccc4F)nc3C2)c1	9.9 µM
0.078 µM	0.108 µM	57.4 ×10⁻⁶ cm/s	61.7 ×10⁻⁶ cm/s	1.1	> 10 µM	> 10 µM	> 10 µM	> 10 µM	> 10 ×10⁻⁶ cm/s	C[C@H](Oc1ccc(C#N)cc1C(=O)N1Cc2cn(-c3ccccc3F)nc2C1)C(F)(F)F	> 10 µM
